We go through 36 compounds from PubChem BioAssay AID488931 (Broad Institute, 2010).

The structures appear in SMILES notation. Active and inactive are the calls of the source.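 Rule for the calls: active = rising protection curve whose AC50 sits at or below ten times the top dose tested for that sample; inconclusive = flat response between 30 and 70 percent, or poor fit; inactive = the rest.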

System in one test: not listed separately
In words: INS-1E mitochondrial potential rescue under cytokines – cell-based, JC-1 fluorescence ratio, dry powder, dose response (AID 488931). To be noted: INS-1E cytokine-induced mitochondrial depolarization, JC-1 ratio, 48 h; at 19.5 µM (top of the series).
`COc1ccc(S(=O)(=O)N(C)C[C@@H]2Oc3c(NC(=O)Nc4cccc5ccccc45)cccc3C(=O)N([C@@H](C)CO)C[C@H]2C)cc1`: the protection from depolarization is 10.7% (inactive). With `COc1ccc(S(=O)(=O)N(C)C[C@@H]2Oc3c(NS(=O)(=O)c4ccc(F)cc4)cccc3C(=O)N([C@@H](C)CO)C[C@H]2C)cc1`, the protection from depolarization was 2.07% (inactive). For `C[C@@H]1CN([C@@H](C)CO)C(=O)c2cccc(NC(=O)Nc3cccc4ccccc34)c2O[C@H]1CN(C)C(=O)Nc1ccc(F)cc1`, the protection from depolarization is -0.192% (inactive). On to `COc1ccc(S(=O)(=O)N(C)C[C@@H]2Oc3c(NC(=O)NC4CCCCC4)cccc3C(=O)N([C@@H](C)CO)C[C@H]2C)cc1`, for which the protection from depolarization is 16.4% (inactive). Take `COc1ccc(S(=O)(=O)N(C)C[C@H]2Oc3c(NC(=O)Nc4cccc5ccccc45)cccc3C(=O)N([C@H](C)CO)C[C@H]2C)cc1`: the protection from depolarization is 7.31% (inactive). Still for that read-out and setting: under `COc1ccc(S(=O)(=O)N(C)C[C@@H]2Oc3c(NS(=O)(=O)c4ccccc4)cccc3C(=O)N([C@@H](C)CO)C[C@H]2C)cc1` stands 7.15% (inactive). Same read-out and setting: under `COc1ccc(S(=O)(=O)N(C)C[C@@H]2Oc3c(NC(=O)C4CCOCC4)cccc3C(=O)N([C@@H](C)CO)C[C@H]2C)cc1` stands 0.344% (inactive). As for `COc1ccc(S(=O)(=O)N(C)C[C@@H]2Oc3c(NC(=O)c4cc(C)nn4C)cccc3C(=O)N([C@@H](C)CO)C[C@H]2C)cc1`, the protection from depolarization was -6.67% (inactive). In the case of `COc1ccc(S(=O)(=O)N(C)C[C@@H]2Oc3c(NC(=O)c4cccc5ccccc45)cccc3C(=O)N([C@@H](C)CO)C[C@H]2C)cc1`, the protection from depolarization is 5.96% (inactive). For the compound `COc1ccc(NC(=O)Nc2cccc3c2O[C@@H](CN(C)S(=O)(=O)c2ccc(OC)cc2)[C@H](C)CN([C@@H](C)CO)C3=O)cc1`, the protection from depolarization is -0.254% (inactive).

Consider `C[C@@H]1CN([C@@H](C)CO)C(=O)c2cccc(NC(=O)Nc3cccc4ccccc34)c2O[C@H]1CN(C)S(=O)(=O)c1ccc(F)cc1`, for which the protection from depolarization is 6.22% (inactive). Regarding `C[C@@H]1CN([C@@H](C)CO)C(=O)c2cccc(NC(=O)Nc3cccc4ccccc34)c2O[C@H]1CN(C)S(=O)(=O)c1cn(C)cn1`, the protection from depolarization is -9.26% (inactive). Regarding `Cc1ccc(S(=O)(=O)N(C)C[C@H]2Oc3c(NC(=O)Nc4cccc5ccccc45)cccc3C(=O)N([C@@H](C)CO)C[C@@H]2C)cc1`, the protection from depolarization is -8.26% (inactive). As to `COc1ccc(S(=O)(=O)N(C)C[C@@H]2Oc3c(NC(=O)Nc4cccc5ccccc45)cccc3C(=O)N([C@@H](C)CO)C[C@H]2C)c(OC)c1`, the protection from depolarization is 9.11% (inactive).

As for `Cc1noc(C)c1NC(=O)N(C)C[C@@H]1Oc2c(NC(=O)Nc3cccc4ccccc34)cccc2C(=O)N([C@@H](C)CO)C[C@H]1C`, the protection from depolarization is 10.5% (inactive).

For `COc1ccc(S(=O)(=O)N(C)C[C@@H]2Oc3c(NS(=O)(=O)c4cn(C)cn4)cccc3C(=O)N([C@@H](C)CO)C[C@H]2C)cc1`, the protection from depolarization was 1.64% (inactive).

On to `COc1ccc(S(=O)(=O)N(C)C[C@@H]2Oc3c(NS(C)(=O)=O)cccc3C(=O)N([C@@H](C)CO)C[C@H]2C)cc1`, for which the protection from depolarization is -3.87% (inactive). `C[C@@H]1CN([C@@H](C)CO)C(=O)c2cccc(NC(=O)Nc3ccccc3)c2O[C@H]1CN(C)S(=O)(=O)c1ccc(F)cc1`: the protection from depolarization is 11.5% (inactive).

Consider `C[C@@H]1CN([C@@H](C)CO)C(=O)c2cccc(NC(=O)Nc3ccccc3)c2O[C@H]1CN(C)S(=O)(=O)c1ccc(Cl)cc1`, for which the protection from depolarization is 18.7% (inactive).

Take `C[C@@H]1CN([C@@H](C)CO)C(=O)c2cccc(NC(=O)Nc3cccc4ccccc34)c2O[C@H]1CN(C)S(=O)(=O)c1cccc(F)c1`: the protection from depolarization is -3.75% (inactive). Regarding `C[C@@H]1CN([C@@H](C)CO)C(=O)c2cccc(NC(=O)Nc3cccc4ccccc34)c2O[C@H]1CN(C)S(=O)(=O)c1ccccc1F`, the protection from depolarization is -1.29% (inactive). On to `CNC[C@@H]1Oc2c(NC(=O)Nc3cccc4ccccc34)cccc2C(=O)N([C@@H](C)CO)C[C@H]1C`, for which the protection from depolarization is 4.81% (inactive). Same read-out and setting: next, `COc1ccccc1S(=O)(=O)N(C)C[C@@H]1Oc2c(NC(=O)Nc3cccc4ccccc34)cccc2C(=O)N([C@@H](C)CO)C[C@H]1C`: 4.59% (inactive); `C[C@@H]1CN([C@@H](C)CO)C(=O)c2cccc(NC(=O)Nc3cccc4ccccc34)c2O[C@H]1CN(C)C(=O)Nc1ccccc1`: -8.43% (inactive).

In the case of `COc1ccc(S(=O)(=O)N(C)C[C@@H]2Oc3c(NC(=O)C4CC4)cccc3C(=O)N([C@@H](C)CO)C[C@H]2C)cc1`, the protection from depolarization was 0.699% (inactive). For the compound `C[C@@H]1CN([C@@H](C)CO)C(=O)c2cccc(NC(=O)Nc3cccc4ccccc34)c2O[C@H]1CN(C)C(=O)Nc1ccc2c(c1)OCO2`, the protection from depolarization is 0.627% (inactive). Turning to `C[C@@H]1CN([C@@H](C)CO)C(=O)c2cccc(NC(=O)Nc3cccc4ccccc34)c2O[C@H]1CN(C)S(=O)(=O)c1ccc2c(c1)oc(=O)n2C`, the protection from depolarization was 23.7% (inactive).

For `COc1ccc(S(=O)(=O)N(C)C[C@@H]2Oc3c(NC(=O)c4cnccn4)cccc3C(=O)N([C@@H](C)CO)C[C@H]2C)cc1`, the protection from depolarization is -0.183% (inactive).

For the compound `C[C@@H]1CN([C@@H](C)CO)C(=O)c2cccc(NC(=O)Nc3cccc4ccccc34)c2O[C@H]1CN(C)C(=O)Nc1ccc(C(F)(F)F)cc1`, the protection from depolarization is -10.5% (inactive). On to `COc1ccc(S(=O)(=O)N(C)C[C@@H]2Oc3c(NS(=O)(=O)c4ccc(Cl)cc4)cccc3C(=O)N([C@@H](C)CO)C[C@H]2C)cc1`, for which the protection from depolarization was 3.44% (inactive). Consider `COc1ccc(S(=O)(=O)N(C)C[C@@H]2Oc3c(cccc3N(C)C)C(=O)N([C@@H](C)CO)C[C@H]2C)cc1`, for which the protection from depolarization was -3.81% (inactive). With `COc1ccc(S(=O)(=O)N(C)C[C@@H]2Oc3c(NC(=O)Nc4ccc(F)cc4)cccc3C(=O)N([C@@H](C)CO)C[C@H]2C)cc1`, the protection from depolarization is 23.9% (inactive). With `COc1ccc(S(=O)(=O)N(C)C[C@@H]2Oc3c(NC(=O)Nc4ccc(C(F)(F)F)cc4)cccc3C(=O)N([C@@H](C)CO)C[C@H]2C)cc1`, the protection from depolarization was 12.6% (inactive). `C[C@H]1CN([C@@H](C)CO)C(=O)c2cccc(NC(=O)NC3CCCCC3)c2O[C@@H]1CN(C)S(C)(=O)=O`: the protection from depolarization was 4.62% (inactive). Regarding `C[C@@H]1CN([C@@H](C)CO)C(=O)c2cccc(NC(=O)Nc3cccc4ccccc34)c2O[C@H]1CN(C)S(=O)(=O)c1ccc2c(c1)OCCO2`, the protection from depolarization was 19.2% (inactive).

The next test deals with INS-1E cytokine-induced mitochondrial depolarization, JC-1 ratio, 48 h. The description is as above.
Conditions: not given
For the compound `COc1ccc(S(=O)(=O)N(C)C[C@@H]2Oc3c(NC(=O)Nc4ccccc4)cccc3C(=O)N([C@H](C)CO)C[C@H]2C)cc1`, the AC50 was > 19.5 µM (inactive).

The term AC50 denotes the concentration giving half of the maximal activity seen.
